The values that follow come from PMC5366289 (Biochemistry, 2016).

One data set deals with E. coli cells. The following applies: ref K. S. Jakes, unpublished data; listed as T100–120; cited from earlier work.
Data set [1] can be described thus: Far-UV circular dichroism, helical content of T-domain peptides. The class given is physicochemical. Background: CD spectra are sensitive to the conformation of chiral molecules.
The target in the next data set is TolC (Escherichia coli, UniProt P02930). Conditions: BLM; concentration not given; listed as synthetic peptide 100–120.
Chain of TolC (P02930 23-493): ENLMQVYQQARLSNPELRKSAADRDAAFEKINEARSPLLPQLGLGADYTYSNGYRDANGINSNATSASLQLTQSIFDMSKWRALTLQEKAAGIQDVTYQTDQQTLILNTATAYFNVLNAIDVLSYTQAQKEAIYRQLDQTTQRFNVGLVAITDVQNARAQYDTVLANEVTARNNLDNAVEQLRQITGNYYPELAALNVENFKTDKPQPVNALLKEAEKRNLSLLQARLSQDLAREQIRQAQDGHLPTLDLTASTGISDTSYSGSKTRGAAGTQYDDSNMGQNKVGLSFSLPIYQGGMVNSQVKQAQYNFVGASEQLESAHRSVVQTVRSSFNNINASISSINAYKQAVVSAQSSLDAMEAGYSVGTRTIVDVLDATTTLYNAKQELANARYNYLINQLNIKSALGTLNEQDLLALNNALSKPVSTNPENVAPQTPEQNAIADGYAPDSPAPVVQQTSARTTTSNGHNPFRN
The subject of data set [2] is E. coli, TolC Gly43 mutants. The following applies: cited from earlier work.
The conditions of data set [3]: cytoplasmic membrane; cited from earlier work.

Entries after “also recorded” stand apart in the source; their conditions may differ.

In the case of H-EALRHNASRTPSATELAHANN-OH [100–120 ^e], in the data set with E. coli cells, the “protection of E. coli cells against colicin E1 cytotoxicity” value is “inability of the synthetic peptide T100–120, which lacks ordered secondary structure, to occlude TolC channels, and to protect E. coli cells; also recorded: does not protect E. coli cells”. In data set [1] (from helical content by far-UV CD, DichroWeb, tags assumed unordered), the “no. of residues, helix” value was 0 residues. Further, the “no. of residues, unordered” value in data set [1] (total number in peptide excluding tags minus residues in helices) came to 21 residues. Also, the “occlusion of TolC channels, in words” value at TolC is listed as “did not occlude TolC channels”.

B1: colicin E1: 522-residue channel-forming colicin (protein, UniProt P02978 1-522, looked up)
Colicin-E1: METAVAYYKDGVPYDDKGQVIITLLNGTPDGSGSGGGGGKGGSKSESSAAIHATAKWSTAQLKKTQAEQAARAKAAAEAQAKAKANRDALTQRLKDIVNEALRHNASRTPSATELAHANNAAMQAEDERLRLAKAEEKARKEAEAAEKAFQEAEQRRKEIEREKAETERQLKLAEAEEKRLAALSEEAKAVEIAQKKLSAAQSEVVKMDGEIKTLNSRLSSSIHARDAEMKTLAGKRNELAQASAKYKELDELVKKLSPRANDPLQNRPFFEATRRRVGAGKIREEKQKQVTASETRINRINADITQIQKAISQVSNNRNAGIARVHEAEENLKKAQNNLLNSQIKDAVDATVSFYQTLTEKYGEKYSKMAQELADKSKGKKIGNVNEALAAFEKYKDVLNKKFSKADRDAIFNALASVKYDDWAKHLDQFAKYLKITGHVSFGYDVVSDILKIKDTGDWKPLFLTLEKKAADAGVSYVVALLFSLLAGTTLGIWGIAIVTGILCSYIDKNKLNTINEVLGI
B1: the “killing efficiency of colicin E1 on TolC Gly43 mutants” value in data set [2] (larger side chains at TolC residue 43) is listed as “reduced the killing efficiency”. Also, in data set [2] (mutation to residue with larger side chains), the “decrease in colicin E1 cytotoxicity by TolC G43 mutation” value is ≤ 1000 -fold. The channel conductance result in data set [3] was “approximately 10^6 ions/s per channel”.
